From the supplement of paper PMC10307832

How the values were obtained:
Assay in all cases: relative viability (nuclei count vs DMSO), 5 days (fraction); higher = more cells survive
[1] = compound: COc1cccc2c1C(=O)c1c(O)c3c(c(O)c1C2=O)C[C@@](O)(C(=O)CO)C[C@@H]3O[C@H]1C[C@H](N)[C@H](O)[C@H](C)O1 [Doxorubicin] + O=C(CCCCCCC(=O)Nc1ccccc1)NO [Vorinostat] (partner 1 µM)
In short: (§1)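 Lung cancer cell lines in 1536-well plates got either a single drug or a fixed anchor-drug dose together with five library-drug doses (not always all listed) in √10 steps, by pin tool, on the day after seeding. Nuclei were counted after 5 days, and relative viability is the treated-to-vehicle ratio of nuclei counts. Values are medians of duplicate plates.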

[2] = compound: COc1cccc2c1C(=O)c1c(O)c3c(c(O)c1C2=O)C[C@@](O)(C(=O)CO)C[C@@H]3O[C@H]1C[C@H](N)[C@H](O)[C@H](C)O1 [Doxorubicin] + C[C@]1(O)C[C@@H](c2nc(-c3ccc4ccc(-c5ccccc5)nc4c3)c3c(N)nccn32)C1 [Linsitinib] (partner 1 µM)
In short: as §1

[3] = compound: COc1cccc2c1C(=O)c1c(O)c3c(c(O)c1C2=O)C[C@@](O)(C(=O)CO)C[C@@H]3O[C@H]1C[C@H](N)[C@H](O)[C@H](C)O1 [Doxorubicin] + COc1cccc2cc(-c3nc([C@H]4CC[C@H](C(=O)O)CC4)n4ncnc(N)c34)[nH]c12 [OSI-027] (partner 0.5 µM)
In short: as §1

[4] = compound: COc1cccc2c1C(=O)c1c(O)c3c(c(O)c1C2=O)C[C@@](O)(C(=O)CO)C[C@@H]3O[C@H]1C[C@H](N)[C@H](O)[C@H](C)O1 [Doxorubicin] + Cc1nc(NC(=O)N2CCC[C@H]2C(N)=O)sc1-c1ccnc(C(C)(C)C(F)(F)F)c1 [Alpelisib] (partner 2 µM)
In short: as §1

NCI-H1793
relative viability ([1]; first compound 0.003162 µM): 0.867
relative viability ([1]; first compound 0.01 µM): 0.728
relative viability ([1]; first compound 0.03162 µM): 0.659
relative viability ([1]; first compound 0.1 µM): 0.731
relative viability ([2]; first compound 0.003162 µM): 0.813
relative viability ([2]; first compound 0.01 µM): 0.848
relative viability ([2]; first compound 0.03162 µM): 0.579
relative viability ([2]; first compound 0.1 µM): 0.911
relative viability ([3]; first compound 0.003162 µM): 0.334
relative viability ([3]; first compound 0.01 µM): 0.253
relative viability ([3]; first compound 0.03162 µM): 0.265
relative viability ([3]; first compound 0.1 µM): 0.292
relative viability ([4]; first compound 0.003162 µM): 0.557
relative viability ([4]; first compound 0.01 µM): 0.675
relative viability ([4]; first compound 0.03162 µM): 0.389
relative viability ([4]; first compound 0.1 µM): 0.588

NCI-H596
relative viability ([1]; first compound 0.001 µM): 0.533
relative viability ([1]; first compound 0.003162 µM): 0.594
relative viability ([1]; first compound 0.01 µM): 0.641
relative viability ([1]; first compound 0.03162 µM): 0.605
relative viability ([1]; first compound 0.1 µM): 0.632
relative viability ([2]; first compound 0.001 µM): 1.01
relative viability ([2]; first compound 0.003162 µM): 1.12
relative viability ([2]; first compound 0.01 µM): 1.09
relative viability ([2]; first compound 0.03162 µM): 1.01
relative viability ([2]; first compound 0.1 µM): 0.992
relative viability ([3]; first compound 0.001 µM): 0.578
relative viability ([3]; first compound 0.003162 µM): 0.801
relative viability ([3]; first compound 0.01 µM): 0.799
relative viability ([3]; first compound 0.03162 µM): 0.647
relative viability ([3]; first compound 0.1 µM): 0.721
relative viability ([4]; first compound 0.001 µM): 0.446
relative viability ([4]; first compound 0.003162 µM): 0.537
relative viability ([4]; first compound 0.01 µM): 0.524
relative viability ([4]; first compound 0.03162 µM): 0.446
relative viability ([4]; first compound 0.1 µM): 0.551

PC-3 [JPC-3]
relative viability ([1]; first compound 0.001 µM): 1.02
relative viability ([1]; first compound 0.003162 µM): 0.946
relative viability ([1]; first compound 0.01 µM): 0.824
relative viability ([1]; first compound 0.03162 µM): 0.747
relative viability ([1]; first compound 0.1 µM): 0.416
relative viability ([2]; first compound 0.001 µM): 1.01
relative viability ([2]; first compound 0.003162 µM): 0.992
relative viability ([2]; first compound 0.01 µM): 0.94
relative viability ([2]; first compound 0.03162 µM): 0.907
relative viability ([2]; first compound 0.1 µM): 0.901
relative viability ([3]; first compound 0.001 µM): 0.797
relative viability ([3]; first compound 0.003162 µM): 0.729
relative viability ([3]; first compound 0.01 µM): 0.747
relative viability ([3]; first compound 0.03162 µM): 0.733
relative viability ([3]; first compound 0.1 µM): 0.801
relative viability ([4]; first compound 0.001 µM): 1.02
relative viability ([4]; first compound 0.003162 µM): 1.02
relative viability ([4]; first compound 0.01 µM): 1.05
relative viability ([4]; first compound 0.03162 µM): 1
relative viability ([4]; first compound 0.1 µM): 1.03

HCC-366
relative viability ([1]; first compound 0.001 µM): 0.279
relative viability ([1]; first compound 0.003162 µM): 0.403
relative viability ([1]; first compound 0.01 µM): 0.306
relative viability ([1]; first compound 0.03162 µM): 0.211
relative viability ([1]; first compound 0.1 µM): 0.122
relative viability ([2]; first compound 0.003162 µM): 0.392
relative viability ([2]; first compound 0.01 µM): 0.706
relative viability ([2]; first compound 0.03162 µM): 0.52
relative viability ([2]; first compound 0.1 µM): 0.512
relative viability ([3]; first compound 0.003162 µM): 1.01
relative viability ([3]; first compound 0.01 µM): 0.934
relative viability ([3]; first compound 0.03162 µM): 0.85
relative viability ([3]; first compound 0.1 µM): 0.423
relative viability ([4]; first compound 0.003162 µM): 0.348
relative viability ([4]; first compound 0.01 µM): 0.439
relative viability ([4]; first compound 0.03162 µM): 0.369
relative viability ([4]; first compound 0.1 µM): 0.367

NCI-H1623
relative viability ([3]; first compound 0.001 µM): 0.388
relative viability ([3]; first compound 0.003162 µM): 0.41
relative viability ([3]; first compound 0.01 µM): 0.462
relative viability ([3]; first compound 0.03162 µM): 0.434
relative viability ([3]; first compound 0.1 µM): 0.423

Calu-6
relative viability ([2]; first compound 0.001 µM): 0.944
relative viability ([2]; first compound 0.003162 µM): 0.972
relative viability ([2]; first compound 0.01 µM): 0.814
relative viability ([2]; first compound 0.03162 µM): 0.627
relative viability ([2]; first compound 0.1 µM): 0.702
relative viability ([4]; first compound 0.001 µM): 1.09
relative viability ([4]; first compound 0.003162 µM): 1.01
relative viability ([4]; first compound 0.01 µM): 0.866
relative viability ([4]; first compound 0.03162 µM): 0.529
relative viability ([4]; first compound 0.1 µM): 0.295

LCLC-103H
relative viability ([1]; first compound 0.001 µM): 0.775
relative viability ([1]; first compound 0.003162 µM): 0.823
relative viability ([1]; first compound 0.01 µM): 0.779
relative viability ([1]; first compound 0.03162 µM): 0.811
relative viability ([1]; first compound 0.1 µM): 0.902
relative viability ([2]; first compound 0.001 µM): 0.935
relative viability ([2]; first compound 0.003162 µM): 1.17
relative viability ([2]; first compound 0.01 µM): 1.06
relative viability ([2]; first compound 0.03162 µM): 1.17
relative viability ([2]; first compound 0.1 µM): 1.14
relative viability ([3]; first compound 0.001 µM): 0.482
relative viability ([3]; first compound 0.003162 µM): 0.436
relative viability ([3]; first compound 0.01 µM): 0.516
relative viability ([3]; first compound 0.03162 µM): 0.405
relative viability ([3]; first compound 0.1 µM): 0.454
relative viability ([4]; first compound 0.001 µM): 0.917
relative viability ([4]; first compound 0.003162 µM): 0.993
relative viability ([4]; first compound 0.01 µM): 0.981
relative viability ([4]; first compound 0.03162 µM): 1.06
relative viability ([4]; first compound 0.1 µM): 1.08

CAL-12T
relative viability ([1]; first compound 0.001 µM): 0.928
relative viability ([1]; first compound 0.003162 µM): 0.808
relative viability ([1]; first compound 0.01 µM): 0.488
relative viability ([1]; first compound 0.03162 µM): 0.228
relative viability ([1]; first compound 0.1 µM): 0.153
relative viability ([2]; first compound 0.001 µM): 0.783
relative viability ([2]; first compound 0.003162 µM): 0.858
relative viability ([2]; first compound 0.01 µM): 0.762
relative viability ([2]; first compound 0.03162 µM): 0.432
relative viability ([2]; first compound 0.1 µM): 0.48
relative viability ([3]; first compound 0.001 µM): 0.609
relative viability ([3]; first compound 0.003162 µM): 0.695
relative viability ([3]; first compound 0.01 µM): 0.515
relative viability ([3]; first compound 0.03162 µM): 0.194
relative viability ([3]; first compound 0.1 µM): 0.146
relative viability ([4]; first compound 0.001 µM): 1.23
relative viability ([4]; first compound 0.003162 µM): 1.41
relative viability ([4]; first compound 0.01 µM): 0.587
relative viability ([4]; first compound 0.03162 µM): 0.26
relative viability ([4]; first compound 0.1 µM): 0.142

NCI-H23
relative viability ([1]; first compound 0.001 µM): 0.551
relative viability ([1]; first compound 0.003162 µM): 0.808
relative viability ([1]; first compound 0.01 µM): 0.654
relative viability ([1]; first compound 0.03162 µM): 0.464
relative viability ([1]; first compound 0.1 µM): 0.363
relative viability ([2]; first compound 0.003162 µM): 0.539
relative viability ([2]; first compound 0.01 µM): 0.683
relative viability ([2]; first compound 0.03162 µM): 0.473
relative viability ([2]; first compound 0.1 µM): 0.638
relative viability ([3]; first compound 0.003162 µM): 0.664
relative viability ([3]; first compound 0.01 µM): 0.694
relative viability ([3]; first compound 0.03162 µM): 0.537
relative viability ([3]; first compound 0.1 µM): 0.506
relative viability ([4]; first compound 0.003162 µM): 0.716
relative viability ([4]; first compound 0.01 µM): 0.555
relative viability ([4]; first compound 0.03162 µM): 0.517
relative viability ([4]; first compound 0.1 µM): 0.662
